System: genes predictive for the anti-inflammatory macrolide effect
Test: Genes statistically predictive of Clari response: differentially expressed with Clari but not the inactive macrolides MAA or Josa (Appendix E)
Assay type: cell-based
Settings: pooled group mean
Text: In the case of the above-mentioned (i) related to arachidonic acid biosynthesis, specifically, methods of the embodiment involve assaying whether a test macrolide alters biosynthesis of arachidonic acid, alters the expression or activities of enzymes involved in the biosynthesis or activation of arachidonic acid (e.g., arachidonic acid CoA synthetase, delta-6 desaturase, fatty acid elongase, and delta-5 desaturase, AA-related genes in Tables 2 and 3), or alters the expression of genes identified as predictive for the anti-inflammatory macrolide effect (Appendix E). Assays in which arachidonic acid or gene expression or enzymatic activity is detected can be carried out after contacting a cell with a test macrolide. Any cell line that secretes prostaglandin or produces arachidonic acid can be used. Epithelial and macrophages lines (e.g., A549 or THP-1) are suitable for this purpose; other cell lines can be identified by carrying out assays such as those described in the specific Examples, below. Alternatively, screening assays can be carried out after adding a test macrolide to an in vitro cell system (e.g., a cellular extract or liver microsome preparation) or an in vitro enzyme assay system.

CC[C@H]1OC(=O)[C@H](C)[C@@H](O[C@H]2C[C@@](C)(OC)[C@@H](O)[C@H](C)O2)[C@H](C)[C@@H](O[C@@H]2O[C@H](C)C[C@H](N(C)C)[C@H]2O)[C@](C)(O)C[C@@H](C)/C(=N\OCOCCOC)[C@H](C)[C@@H](O)[C@]1(C)O [roxithromycin]
0.90: mean group, C2orf3 (SpotID 47034) | mean group, FRDA (SpotID 48137)
1.09: mean group, PACE (SpotID 46923) | mean group, UBC (SpotID 49514) | mean group, SERPINF1 (SpotID 49679) | mean group, AD022 (SpotID 49800)
1.04: mean group, GRB2 (SpotID 48266) | mean group, SCOP (SpotID 50079)
0.92: mean group, KIAA1172 (SpotID 46679) | mean group, RPL13A (SpotID 48500) | mean group, TRRAP (SpotID 49435) | mean group, AP1G2 (SpotID 49524) | mean group, PRKDC (SpotID 50736)
0.97: mean group, NBS1 (SpotID 47754) | mean group, DDC (SpotID 48456) | mean group, ITGAE (SpotID 48921) | mean group, YWHAH (SpotID 49318)
0.89: mean group, METAP2 (SpotID 46935) | mean group, RANBP1 (SpotID 47446) | mean group, POLA (SpotID 47776) | mean group, CKS2 (SpotID 50590)
0.94: mean group, TRAP1 (SpotID 47622) | mean group, GOT1 (SpotID 47802) | mean group, MAPK9 (SpotID 48365) | mean group, SpotID 48486 (SpotID 48486 (gene symbol not given)) | mean group, IKKE (SpotID 48725) | mean group, TEB4 (SpotID 49360) | mean group, VTN (SpotID 49490) | mean group, CYC1 (SpotID 49787)
1.12: mean group, MKNK2 (SpotID 46825) | mean group, CLN2 (SpotID 49618)
1.13: mean group, MGEA5 (SpotID 48411) | mean group, SpotID 50591 (SpotID 50591 (gene symbol not given))
0.82: mean group, SNK (SpotID 47418)
0.85: mean group, EREG (SpotID 46988)
0.96: mean group, ARHGAP1 (SpotID 46648)
1.00: mean group, CFL1 (SpotID 50351) | mean group, ARHC (SpotID 50513)
1.06: mean group, ENTPD6 (SpotID 47811) | mean group, NFE2L1 (SpotID 48557) | mean group, RALA (SpotID 48732) | mean group, ATP2B4 (SpotID 49915) | mean group, SRP19 (SpotID 50601)
1.16: mean group, PPIB (SpotID 49314)
0.91: mean group, HSPBP1 (SpotID 48693)
0.86: mean group, BARD1 (SpotID 48461) | mean group, ARTS-1 (SpotID 49155) | mean group, CNOT3 (SpotID 50099)
1.10: mean group, ADAM11 (SpotID 47352) | mean group, APLP2 (SpotID 48530) | mean group, XBP1 (SpotID 48620) | mean group, AD022 (SpotID 49767) | mean group, GOCAP1 (SpotID 50421) | mean group, AD022 (SpotID 50738)
0.71: mean group, THBS1 (SpotID 47987)
1.18: mean group, P4HB (SpotID 47366) | mean group, CETN2 (SpotID 47415) | mean group, P4HA1 (SpotID 47935) | mean group, P4HA1 (SpotID 48707) | mean group, TM9SF2 (SpotID 49007)
0.81: mean group, FLJ20699 (SpotID 46633)
1.08: mean group, SDCBP (SpotID 48646) | mean group, TNFRSF10B (SpotID 49272) | mean group, IL10RB (SpotID 50267) | mean group, IKKE (SpotID 50342)
1.14: mean group, EPOR (SpotID 47314) | mean group, NR4A2 (SpotID 47679) | mean group, PRSS25 (SpotID 49006) | mean group, SRC (SpotID 49446)
0.95: mean group, NUBP1 (SpotID 47241) | mean group, DCTN1 (SpotID 47439) | mean group, SERPINA1 (SpotID 47522) | mean group, HSPA9B (SpotID 47694) | mean group, ZAP3 (SpotID 48160) | mean group, PPP3CB (SpotID 48717)
0.98: mean group, ARAF1 (SpotID 48521) | mean group, FECH (SpotID 48654) | mean group, MGP (SpotID 50511)
1.01: mean group, CDIPT (SpotID 46896) | mean group, GCN5L1 (SpotID 48301) | mean group, APOE (SpotID 49233) | mean group, BET1 (SpotID 50645)
0.99: mean group, MSH3 (SpotID 47504) | mean group, PRLR (SpotID 47850)
0.88: mean group, SFRS7 (SpotID 48149) | mean group, KIAA0217 (SpotID 48804) | mean group, SERPINB1 (SpotID 49117) | mean group, CHAF1B (SpotID 49737)
1.03: mean group, DNASE1L1 (SpotID 47950) | mean group, SRF (SpotID 48026) | mean group, MAPK12 (SpotID 48233) | mean group, CCT3 (SpotID 48345) | mean group, SpotID 49374 (SpotID 49374 (gene symbol not given))
1.28: mean group, SERPINB1 (SpotID 48415)
0.93: mean group, ARHGDIA (SpotID 46843) | mean group, SSI-1 (SpotID 47846) | mean group, MAFB (SpotID 48747) | mean group, RRS1 (SpotID 49169) | mean group, RFC1 (SpotID 49947) | mean group, HIF1A (SpotID 50022)
1.05: mean group, USF2 (SpotID 47973)
1.07: mean group, CSTF3 (SpotID 49606) | mean group, BN51T (SpotID 50584)
1.20: mean group, BNIP3L (SpotID 49028)
0.84: mean group, LOC51295 (SpotID 50349)
1.11: mean group, BTN3A2 (SpotID 49673)
1.02: mean group, GCS1 (SpotID 47432) | mean group, RPN2 (SpotID 47988) | mean group, CUTL1 (SpotID 48004) | mean group, LOC54543 (SpotID 49577) | mean group, NDUFA2 (SpotID 50050)

From US20070172957A1, “Methods of identifying anti-inflammatory macrolides” (TAISHO PHARMACEUTICAL CO., LTD., priority 2004, published 2007)
